≈ marks a conversion by molar mass, not a printed value.

The subject of the assay is EMRSA 16. As to the kind of experiment: MIC assay, EMRSA 16. Particulars: Staphylococcus aureus. In kind it is cell-based. The procedure: The antimicrobial activity of a selection of compounds were evaluated in a Gram-negative, Gram-positive and multi-resistant bacteria using the standard minimum inhibitory concentration (MIC) assay for an overnight (16-20 hour) incubation period. Commercially marketed antibiotics (Table 3) were used as positive controls during the study.
Mueller-Hinton broth (MH Broth) (Sigma-Aldrich; Millipore, cat. no. 70192) and Mueller-Hinton agar (MHA) (Sigma-Aldrich; Millipore, cat. no. 70191) were prepared as per manufacturer's instructions and sterilized by autoclaving. Approximately 20 mL of MHA was poured onto 15×100 mm petri dishes and allowed to set. Agar plates were then stored in plastic bags in an inverted position at 4° C.
Bacterial strains were provided in the form of a glycerol stock, stored at −80° C. For the purpose of preparation of bacterial suspension, appropriate strains were removed from −80° C. storage onto dry ice and not allowed to freeze-thaw.
Stock solutions of 16, 45 and 73 were provided in DMSO at 1.28 mg/mL concentration. From this stock solution, working solutions of the desired concentration were prepared by diluting with MHB.
MIC assay methodology was adapted from previously published work.
Bacterial isolate to be tested was streaked onto a nutrient-rich MH agar plate and incubated overnight at 37° C. in order to obtain single colonies.
After overnight incubation, single colonies with the same morphological appearance were chosen from the agar plate. These were touched using a sterile loop and transferred into a tube containing 10 mL of a MH broth. They were then mixed using vortex mixer and incubated at 35-37° C. in a shaker at 200 r.p.m. overnight.
Determination of OD600 and cfu/mL count OD600 (the optical density of a sample measured at a wavelength of 600 nm) of the overnight culture was measured. Because of the loss of linearity at OD600 values […], it was necessary to dilute the sample until the OD600 value was below 1.0. For all tested bacteria, a dilution of 1:10 was appropriate (100 μL in 900 μL broth).
The overnight culture was then diluted 1:100 using sterile tubes and MH broth (dilution: 10^−2). Serial dilution was then performed six times until dilution of 10^−8 was reached. 100 μL of dilutions 10^−7 and 10^−8 were plated onto MH agar plates in triplicate using a sterile cell spreader and incubated overnight at 37° C.
After overnight incubation, colonies on plates were counted and cfu per mL calculated. The following formula was applied: […]
After overnight incubation, the OD600 was measured and the overnight culture was diluted accordingly to obtain 1×10^8 cfu/mL. […]
The 96-well plates were read using a SpectraMax plate reader at an absorbance of 600 nm. […]

By MIC is commonly meant the lowest concentration that inhibits growth of the organism. `COc1cc2c(cc1OCCCC(=O)Nc1cc(C(=O)Nc3ccc(-c4cc(C(=O)Nc5ccc(N)cc5)n(C)c4)cc3)n(C)c1)NC[C@@H]1CCCCN1C2=O` [Compound 16, (S)—N-(4-Aminophenyl)-4-(4-(4-(4-((2-methoxy-12-oxo-5,6,6a,7,8,9,10,12-octahydrobenzo[e]pyrido[1,2-a][1,4]diazepin-3-yl)oxy)butanamido)-1-methyl-1H-pyrrole-2-carboxamido)phenyl)-1-methyl-1H-pyrrole-2-carboxamide]: the MIC is 0.25 to 0.5 µg/mL (≈ 0.329 to 0.659 µM).

Values taken from patent US20210371413A1, “POLYCYCLIC AMIDES AS CYTOTOXIC AGENTS” (FEMTOGENIX LIMITED, priority 2018, published 2021).
